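Growth conditions: 96-well plates. Treatment: test compound, 48 hours, 5 concentrations. Analysis: linear interpolation between bracketing concentrations; unreached endpoints set to highest concentration. Abbreviation: GI50, concentration required for 50% inhibition of growth.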 Calls of active or inactive are those of the source. Cut-off read from the data, not from the text of the source: active = GI50 up to about 1.1 µM and inactive = higher.
Assays:
Test in all cases: NCI-60 cell line screen, 48 h
786-0 = tested on: 786-0
CCRF-CEM = tested on: CCRF-CEM
DU-145 = tested on: DU-145
HCC 2998 = tested on: HCC 2998
HL-60 = tested on: HL-60
K562 = tested on: K562
M14 = tested on: M14
MCF7 = tested on: MCF7
MDA-MB-231 = tested on: MDA-MB-231
NCI-H226 = tested on: NCI-H226
NCI-H23 = tested on: NCI-H23
NCI/ADR-RES = tested on: NCI/ADR-RES
OVCAR-8 = tested on: OVCAR-8
SK-OV-3 = tested on: SK-OV-3
SNB-19 = tested on: SNB-19
SR = tested on: SR
SW-620 = tested on: SW-620
T47D = tested on: T47D
TK-10 = tested on: TK-10
UACC-257 = tested on: UACC-257

Row | SMILES | GI50 (786-0) | GI50 (CCRF-CEM) | GI50 (DU-145) | GI50 (HCC 2998) | GI50 (HL-60) | GI50 (K562) | GI50 (M14) | GI50 (MCF7) | GI50 (MDA-MB-231) | GI50 (NCI-H226) | GI50 (NCI-H23) | GI50 (NCI/ADR-RES) | GI50 (OVCAR-8) | GI50 (SK-OV-3) | GI50 (SNB-19) | GI50 (SR) | GI50 (SW-620) | GI50 (T47D) | GI50 (TK-10) | GI50 (UACC-257)
1 | O=C(Nc1ccccc1C(=O)Nc1nccs1)c1ccccc1 | 16.4 µM (inactive) | 4.98 µM (inactive) | 13.6 µM (inactive) | 13.5 µM (inactive) | 3.82 µM (inactive) | 11.2 µM (inactive) | 19.7 µM (inactive) | 12.8 µM (inactive) | 25.1 µM (inactive) | 32.5 µM (inactive) | 65.8 µM (inactive) | 6.17 µM (inactive) | 54.5 µM (inactive) | 23.2 µM (inactive) | 31.9 µM (inactive) | 7.31 µM (inactive) | 25.6 µM (inactive) | 2.84 µM (inactive) | 25.6 µM (inactive) | 31 µM (inactive)
2 | COc1ccc(\N=C/C=C/C(=C/COC(C)=O)OC(C)=O)cc1 | 23 µM (inactive) | 4.56 µM (inactive) | 39.4 µM (inactive) | > 100 µM (inactive) | 19.1 µM (inactive) | 4.89 µM (inactive) | 32.7 µM (inactive) | 21.7 µM (inactive) | 19.6 µM (inactive) | > 100 µM (inactive) | 16.8 µM (inactive) | 39.3 µM (inactive) | 14.4 µM (inactive) | 91.2 µM (inactive) | 58.6 µM (inactive) | 39.4 µM (inactive) | 10.2 µM (inactive) | 72.9 µM (inactive) | 37.2 µM (inactive) | 27.4 µM (inactive)
3 | COc1cc(Br)c(OC)c2c(OC)cc(C)cc12 | 75.7 µM (inactive) | 42.5 µM (inactive) | > 100 µM (inactive) | > 100 µM (inactive) | 14.7 µM (inactive) | 67 µM (inactive) | 64.7 µM (inactive) | > 100 µM (inactive) | 89.9 µM (inactive) | > 100 µM (inactive) | > 100 µM (inactive) | > 100 µM (inactive) | > 100 µM (inactive) | > 100 µM (inactive) | > 100 µM (inactive) | 0.731 µM (active) | > 100 µM (inactive) | 54.5 µM (inactive) | > 100 µM (inactive) | > 100 µM (inactive)
4 | N#Cc1sc2c(c1OC(=O)c1ccccc1)c(=O)n(-c1ccccc1)c(=S)n2-c1ccccc1 | 30.3 µM (inactive) | 19.8 µM (inactive) | 31 µM (inactive) | 25.2 µM (inactive) | 24.4 µM (inactive) | 27.6 µM (inactive) | 18.3 µM (inactive) | 19.2 µM (inactive) | 23.9 µM (inactive) | 18.1 µM (inactive) | 21.2 µM (inactive) | 21 µM (inactive) | 36.5 µM (inactive) | 35.6 µM (inactive) | 36.1 µM (inactive) | 30.8 µM (inactive) | 28.8 µM (inactive) | 16.2 µM (inactive) | 28.8 µM (inactive) | 35.7 µM (inactive)
5 | CCC(C)N1CN(c2ccccc2)C2(CCN(CCCSc3ccc(F)cc3)CC2)C1=O (stereo not given) | 2.89 µM (inactive) | 2.44 µM (inactive) | 3.03 µM (inactive) | 2.04 µM (inactive) | 3.79 µM (inactive) | 2.22 µM (inactive) | 2.34 µM (inactive) | 3.09 µM (inactive) | 0.296 µM (active) | 4.34 µM (inactive) | 4.01 µM (inactive) | 3.05 µM (inactive) | 6.17 µM (inactive) | 4.92 µM (inactive) | 5.52 µM (inactive) | 3.32 µM (inactive) | 4.06 µM (inactive) | 2.99 µM (inactive) | 3.27 µM (inactive) | 2.74 µM (inactive)
6 | CC(C)(CN)CN | > 100 µM (inactive) | > 100 µM (inactive) | > 100 µM (inactive) | > 100 µM (inactive) | > 100 µM (inactive) | > 100 µM (inactive) | > 100 µM (inactive) | > 100 µM (inactive) | > 100 µM (inactive) | > 100 µM (inactive) | > 100 µM (inactive) | > 100 µM (inactive) | > 100 µM (inactive) | > 100 µM (inactive) | > 100 µM (inactive) | > 100 µM (inactive) | > 100 µM (inactive) | > 100 µM (inactive) | > 100 µM (inactive) | > 100 µM (inactive)
